How the values were obtained:
Type in all cases: cell-based, human
MCF-7 cells = assay: Mammosphere formation in MCF-7 cells; conditions: 50 ng/ml/day for 7 days
Method: For mammosphere formation, 1000 cells/ml (500 cells/well) were plated in Ultra Low Cluster Plate, 24-well, Flat Bottom (Corning Inc) with MammoCult™ Medium enriched with MammoCult™ Proliferation Supplements, hydrocortisone and heparin (Stem Cell Technologies) and cultured for 15 days. For all mammosphere assays, at least three independent experiments for each condition were carried out and repeated 8-12 times. For self-renewal experiments, transfected cells were subjected to a first cycle of mammosphere formation. Upon 15 days of culture the created mammospheres were dissociated and cells were re-plated in identical conditions as for the first plating.

[1] = test system: c-Myc, Sox 2, Oct 3/4 and Nanog; assay: Expression of pluripotency/reprogramming factors in MCF-7 cells (RT-qPCR, western blot)
From the text: (§1) The following antibodies were used for immunoblotting: anti-c-Myc (9E10 mouse hybridoma clone), -Nanog (sc-81961, Santa Cruz Biotechnology), -Oct 3/4 (sc-8630, Santa Cruz Biotechnology), -Sox 2 (sc-17320, Santa Cruz Biotechnology), -p53 (DO-1; sc-126 Santa Cruz Biotechnology), -p53 Sapu (Vojtesek et al. 1995), -α-tubulin (clone DM1A, Sigma-Aldrich), -β-actin (clone AC-74 Sigma-Aldrich), -p21 (sc-397 Santa Cruz Biotechnology) and -Flag (clone M2; Sigma-Aldrich). Secondary HRP-conjugated antibodies were from GE Healthcare. For luminescence quantification, cells were serially diluted and incubated with 0.5 mM D-luciferin (Sigma). Luminescence was quantified with a Polarstar Omega instrument (BMG LABTECH).
(§2) Total RNA was extracted (Qiagen) and reverse transcription (RT) was performed with 1-5 μg of total RNA using the SuperScript® III Reverse Transcriptase (Life Technologies) at 50° C. Levels of different mRNAs were quantified by real-time qPCR on a LightCycler480 apparatus (Roche). Briefly, 20 ng cDNA was amplified using 0.168 μM of each primer, 0.2 μM of probe (Table 4) and 1× LightCycler® 480 Probes Master Mix (Roche) for the p53 isoforms, or commercially available primers (Qiagen) and 1× LightCycler® 480 Sybr Green Master Mix (Roche) for the other genes. Data were normalized to the internal standard TBP. The different primers used and their corresponding sequences have been previously described (Bourdon et al., 2005). For each single-well amplification reaction, a threshold cycle (Ct) was calculated by using the LightCycler480 program (Roche) in the exponential phase of amplification. Relative changes in gene expression were determined using the 2ΔΔCt method and reported relative to a control. All quantification studies were performed with at least three independent experiments, repeated twice, for each condition. Data are presented as the arithmetic mean±SEM.

[2] = test system: Δ133p53 (α, β and γ) isoforms; assay: Expression of Δ133p53 isoforms in MCF-7 cells (RT-qPCR, western blot); conditions: MCF-7, etoposide treatment; RT-qPCR and western blot
From the text: as §1
Total RNA was extracted (Qiagen) and reverse transcription (RT) was performed with 1-5 μg of total RNA using the SuperScript® III Reverse Transcriptase (Life Technologies) at 50° C. Levels of different mRNAs were quantified by real-time qPCR on a LightCycler480 apparatus (Roche). […] For each single-well amplification reaction, a threshold cycle (Ct) was calculated by using the LightCycler480 program (Roche) in the exponential phase of amplification. Relative changes in gene expression were determined using the 2ΔΔCt method and reported relative to a control. All quantification studies were performed with at least three independent experiments, repeated twice, for each condition. […]

p53, p21 [3] = assay: Western blot of p53 and p21 in MCF-7 cells after etoposide; conditions: MCF-7, increasing concentrations of etoposide, 16 hours
Method: (§3) The human breast cancer cell lines MCF-7, MDA-MB 231 […] and […] were grown in MEM supplemented with 10% FCS, sodium pyruvate and glutamine. Following viral infection, cells were used after 24-48 h or subjected to selection with 2 μg/ml puromycin (InvivoGen) or 300 μg/ml hygromycin B (Invitrogen) for two days. Etoposide treatment was performed with final doses of 12.5, 25 and 50 ng/ml for 16 h or 50 ng/ml/day for 7 days. […] Secondary HRP-conjugated antibodies were from GE Healthcare. For luminescence quantification, cells were serially diluted and incubated with 0.5 mM D-luciferin (Sigma). Luminescence was quantified with a Polarstar Omega instrument (BMG LABTECH).

[4] = test system: c-Myc, Oct 3/4, Nanog and Sox 2; assay: Expression of pluripotency/reprogramming factors in MDA-MB-231 D3H2LN cells (RT-qPCR, western blot); conditions: MDA-MB-231 D3H2LN
Method: (§4) The human breast cancer cell lines MCF-7, MDA-MB 231 D3H2LN and C3LND were grown in MEM supplemented with 10% FCS, sodium pyruvate and glutamine. Following viral infection, cells were used after 24-48 h or subjected to selection with 2 μg/ml puromycin (InvivoGen) or 300 μg/ml hygromycin B (Invitrogen) for two days. Etoposide treatment was performed with final doses of 12.5, 25 and 50 ng/ml for 16 h or 50 ng/ml/day for 7 days.
as §1, §2

[5] = test system: Δ133p53 (α, β and γ) isoforms; assay: Expression of Δ133p53 isoforms in MDA-MB-231 D3H2LN cells after etoposide; conditions: not dose-dependent
Method: as §4, with “D3H2LN” left out, “C3LND” left out

p53, p21 [6] = assay: Western blot of p53 and p21 in MDA-MB-231 D3H2LN cells after etoposide; conditions: MDA-MB-231 D3H2LN (p53 R280K), increasing concentrations of etoposide
Method: as §3

For COc1cc([C@@H]2c3cc4c(cc3[C@@H](O[C@@H]3O[C@@H]5CO[C@@H](C)O[C@H]5[C@H](O)[C@H]3O)[C@H]3COC(=O)[C@H]23)OCO4)cc(OC)c1O [etoposide, reference compound], the mammosphere formation (MCF-7 cells; Sh2-transduced MCF-7 cells) was “did not have any significant effect”, the mammosphere formation (MCF-7 cells; control MCF-7 cells (active TAp53)) was “significantly reduced” and the c-Myc expression ([1]; MCF-7, increasing concentrations of etoposide, western blot and RT-qPCR) was “reduced”. The “Oct 3/4, Nanog and Sox 2 expression” value ([1]; MCF-7, increasing doses of etoposide, RT-qPCR) was “strongly up-regulated in a dose-dependent manner”, the Δ133p53 isoforms expression [2] was “strongly up-regulated in a dose-dependent manner” and the TAp53α level (p53, p21 [3]) was “stabilization”. The p21 expression (p53, p21 [3]) was “increased”, the c-Myc expression ([4]; increasing concentrations of etoposide) was “significantly down-regulated” and the “expression of Nanog, Sox 2 and Oct 3/4” value ([4]; incubation with etoposide) was “up-regulated”. For the same compound, the “expression of Δ133p53 isoforms” value [5] was “up-regulated”, the TAp53 expression (p53, p21 [6]) was “did not affect” and the p21 expression (p53, p21 [6]) was “only weakly increased”.
